Test results published in patent US11382328B2, “Rapid drug discovery methods for pathogen inactivation” (priority 2019, dated 2022).

System: E. coli strain W3110
Experiment: Synergy assays: Biolog chemical sensitivity panels with Group IB metal, coefficient of drug interaction (CDI) from relative growth
Type: cell-based
Conditions: for CDI (coefficient of drug interaction), copper mixed with biocide: Copper (mM) section
[1] = 1st of 3 copper concentrations (value not shown), 1st of four biocide concentrations
[2] = 1st of 3 copper concentrations (value not shown), 3rd of four biocide concentrations
[3] = 1st of 3 copper concentrations (value not shown), 4th of four biocide concentrations
[4] = 2nd of 3 copper concentrations (value not shown), 1st of four biocide concentrations
[5] = 2nd of 3 copper concentrations (value not shown), 2nd of four biocide concentrations
[6] = 2nd of 3 copper concentrations (value not shown), 3rd of four biocide concentrations
[7] = 2nd of 3 copper concentrations (value not shown), 4th of four biocide concentrations
[8] = 3rd of 3 copper concentrations (value not shown), 1st of four biocide concentrations
[9] = 3rd of 3 copper concentrations (value not shown), 2nd of four biocide concentrations
[10] = 3rd of 3 copper concentrations (value not shown), 3rd of four biocide concentrations
[11] = 3rd of 3 copper concentrations (value not shown), 4th of four biocide concentrations
[12] = Gold section of Table 5, first of three gold concentrations (μM, value not given), biocide concentration 2 of 4
[13] = Gold section of Table 5, first of three gold concentrations (μM, value not given), biocide concentration 3 of 4
[14] = Gold section of Table 5, first of three gold concentrations (μM, value not given), biocide concentration 4 of 4
[15] = Gold section of Table 5, second of three gold concentrations (μM, value not given), biocide concentration 1 of 4
[16] = Gold section of Table 5, second of three gold concentrations (μM, value not given), biocide concentration 2 of 4
[17] = Gold section of Table 5, second of three gold concentrations (μM, value not given), biocide concentration 3 of 4
[18] = Gold section of Table 5, second of three gold concentrations (μM, value not given), biocide concentration 4 of 4
[19] = Gold section of Table 5, third of three gold concentrations (μM, value not given), biocide concentration 1 of 4
[20] = Gold section of Table 5, third of three gold concentrations (μM, value not given), biocide concentration 2 of 4
[21] = Gold section of Table 5, third of three gold concentrations (μM, value not given), biocide concentration 3 of 4
[22] = Gold section of Table 5, third of three gold concentrations (μM, value not given), biocide concentration 4 of 4
[23] = Silver 0.5 μM, biocide concentration 1 of 4
[24] = Silver 0.5 μM, biocide concentration 2 of 4
[25] = Silver 0.5 μM, biocide concentration 3 of 4
[26] = Silver 0.5 μM, biocide concentration 4 of 4
[27] = Silver 1.0 μM, biocide concentration 1 of 4
[28] = Silver 1.0 μM, biocide concentration 2 of 4
[29] = Silver 1.0 μM, biocide concentration 3 of 4
[30] = Silver 1.0 μM, biocide concentration 4 of 4
[31] = Silver 5.0 μM, biocide concentration 1 of 4
[32] = Silver 5.0 μM, biocide concentration 2 of 4
[33] = Silver 5.0 μM, biocide concentration 3 of 4
[34] = Silver 5.0 μM, biocide concentration 4 of 4
[35] = 1st of 3 copper concentrations (value not shown), 2nd of four biocide concentrations
[36] = Gold section of Table 5, first of three gold concentrations (μM, value not given), biocide concentration 1 of 4

In the case of `CN[C@H]1C[C@@H](N)[C@H](O)[C@@H](O[C@@H]2O[C@H](CO)[C@H](O)[C@@H]3OC4(O[C@H]23)O[C@H]([C@@H](N)CO)[C@H](O)[C@H](O)[C@H]4O)[C@@H]1O` (stereo partly shown) [hygromycin B], the “CDI (coefficient of drug interaction), copper mixed with biocide” value (“CDI … with biocide” below) [1] is reported as 1.19, the “CDI … with biocide” value [2] is reported as 0.89 and the “CDI … with biocide” value [3] is reported as 0.61. The “CDI … with biocide” value [4] was 0.80, the “CDI … with biocide” value [5] was 0.81 and the “CDI … with biocide” value [6] was 1.02. For the same compound, the “CDI … with biocide” value [7] was “Tox”, the “CDI … with biocide” value [8] was 0.91 and the “CDI … with biocide” value [9] was 0.79. The “CDI … with biocide” value [10] was 0.77, the “CDI … with biocide” value [11] was 0.94 and the “CDI (coefficient of drug interaction)” value [12] was 0.82. For the same compound, the “CDI (coefficient of drug interaction)” value [13] was “Tox”, the “CDI (coefficient of drug interaction)” value [14] was “Tox” and the “CDI (coefficient of drug interaction)” value [15] was 0.96. For the same compound, the “CDI (coefficient of drug interaction)” value [16] was 1.13, the “CDI (coefficient of drug interaction)” value [17] was “Tox” and the “CDI (coefficient of drug interaction)” value [18] was “Tox”. For the same compound, the “CDI (coefficient of drug interaction)” value [19] was 0.97, the “CDI (coefficient of drug interaction)” value [20] was 1.27 and the “CDI (coefficient of drug interaction)” value [21] was “Tox”. The “CDI (coefficient of drug interaction)” value [22] was “Tox”, the CDI [23] was 1.26 and the CDI [24] was 2.06. For the same compound, the CDI [25] was “Tox”, the CDI [26] was “Tox” and the CDI [27] was 0.63. The CDI [28] was 1.47, the CDI [29] was “Tox” and the CDI [30] was “Tox”. The CDI [31] was 0.03, the CDI [32] was 0.37 and the CDI [33] was “Tox”. For the same compound, the CDI [34] was “Tox”.
For `CCCCCCCCCCCC[N+](C)(C)CCCS(=O)(=O)O` [lauryl sulfobetaine], the “CDI … with biocide” value [1] was 0.96, the “CDI … with biocide” value [35] was 1.18 and the “CDI … with biocide” value [2] was 0.80. For the same compound, the “CDI … with biocide” value [3] was 0.21, the “CDI … with biocide” value [4] was 0.60 and the “CDI … with biocide” value [5] was 1.39. The “CDI … with biocide” value [6] was 0.72, the “CDI … with biocide” value [7] was 0.48 and the “CDI … with biocide” value [8] was 0.48. The “CDI … with biocide” value [9] was 0.80, the “CDI … with biocide” value [10] was 0.34 and the “CDI … with biocide” value [11] was 0.07. The “CDI (coefficient of drug interaction)” value [36] was 0.86, the “CDI (coefficient of drug interaction)” value [12] was 1.26 and the “CDI (coefficient of drug interaction)” value [13] was 0.86. The “CDI (coefficient of drug interaction)” value [14] was 0.99, the “CDI (coefficient of drug interaction)” value [15] was 0.96 and the “CDI (coefficient of drug interaction)” value [16] was 0.87. The “CDI (coefficient of drug interaction)” value [17] was 1.00, the “CDI (coefficient of drug interaction)” value [18] was 1.09 and the “CDI (coefficient of drug interaction)” value [19] was 1.13. The “CDI (coefficient of drug interaction)” value [20] was 1.04, the “CDI (coefficient of drug interaction)” value [21] was 0.96 and the “CDI (coefficient of drug interaction), silver + biocide” value (from here on “CDI … silver + biocide”) (Silver 0.5 μM, 1st of four biocide concentrations, E. coli) was 0.83. The “CDI … silver + biocide” value (Silver 0.5 μM, 2nd of four biocide concentrations, E. coli) was 0.56, the “CDI … silver + biocide” value (Silver 0.5 μM, 3rd of four biocide concentrations, E. coli) was “Tox” and the “CDI … silver + biocide” value (Silver 0.5 μM, 4th of four biocide concentrations, E. coli) was “Tox”. For the same compound, the “CDI … silver + biocide” value (Silver 1.0 μM, 1st of four biocide concentrations, E. coli) was 0.91, the “CDI … silver + biocide” value (Silver 1.0 μM, 2nd of four biocide concentrations, E. coli) was 0.79 and the “CDI … silver + biocide” value (Silver 1.0 μM, 3rd of four biocide concentrations, E. coli) was “Tox”. The “CDI … silver + biocide” value (Silver 1.0 μM, 4th of four biocide concentrations, E. coli) was “Tox”, the “CDI … silver + biocide” value (Silver 5.0 μM, 1st of four biocide concentrations, E. coli) was 1.42 and the “CDI … silver + biocide” value (Silver 5.0 μM, 2nd of four biocide concentrations, E. coli) was 1.41. The “CDI … silver + biocide” value (Silver 5.0 μM, 3rd of four biocide concentrations, E. coli) was “Tox” and the “CDI … silver + biocide” value (Silver 5.0 μM, 4th of four biocide concentrations, E. coli) was “Tox”.
`O=C1C=C(O)C(=O)c2ccccc21` [lawsone] was tested, and the “CDI (coefficient of drug interaction)” value [14] was “Tox”, the “CDI (coefficient of drug interaction)” value [18] was “Tox” and the “CDI (coefficient of drug interaction)” value [22] was “Tox”. The CDI [26] was “Tox”, the CDI [30] was “Tox” and the CDI [34] was “Tox”.
For `O=C(O)CI` [lodoacetate], the “CDI (coefficient of drug interaction)” value [36] was 0.77, the “CDI (coefficient of drug interaction)” value [12] was “Tox” and the “CDI (coefficient of drug interaction)” value [13] was “Tox”. The “CDI (coefficient of drug interaction)” value [14] was “Tox”, the “CDI (coefficient of drug interaction)” value [15] was 1.00 and the “CDI (coefficient of drug interaction)” value [16] was “Tox”. The “CDI (coefficient of drug interaction)” value [17] was “Tox”, the “CDI (coefficient of drug interaction)” value [18] was “Tox” and the “CDI (coefficient of drug interaction)” value [19] was 0.88. For the same compound, the “CDI (coefficient of drug interaction)” value [20] was “Tox”, the “CDI (coefficient of drug interaction)” value [21] was “Tox” and the “CDI (coefficient of drug interaction)” value [22] was “Tox”.
`CCn1cc(C(=O)O)c(=O)c2cc(F)c(N3CCNC(C)C3)c(F)c21` (stereo not shown) [lomefloxacin] was tested, and the “CDI (coefficient of drug interaction)” value (Gold 50 μM, biocide concentration 4 of 4, E. coli) was “Tox”.
In the case of `C[n+]1ccc(-c2cc[n+](C)cc2)cc1` [methyl viologen], the “CDI … with biocide” value [1] is reported as 0.85, the “CDI … with biocide” value [35] is reported as 0.99 and the “CDI … with biocide” value [2] is reported as “Tox”. For the same compound, the “CDI … with biocide” value [3] was “Tox”, the “CDI … with biocide” value [4] was 0.63 and the “CDI … with biocide” value [5] was 0.77. For the same compound, the “CDI … with biocide” value [6] was “Tox”, the “CDI … with biocide” value [7] was “Tox” and the “CDI … with biocide” value [8] was 0.61. The “CDI … with biocide” value [9] was 0.64, the “CDI … with biocide” value [10] was “Tox” and the “CDI … with biocide” value [11] was “Tox”. The “CDI (coefficient of drug interaction)” value [36] was 0.99, the “CDI (coefficient of drug interaction)” value [12] was 1.07 and the “CDI (coefficient of drug interaction)” value [13] was 0.82. For the same compound, the “CDI (coefficient of drug interaction)” value [14] was 0.08, the “CDI (coefficient of drug interaction)” value [15] was 1.01 and the “CDI (coefficient of drug interaction)” value [16] was 1.01. The “CDI (coefficient of drug interaction)” value [17] was 0.66, the “CDI (coefficient of drug interaction)” value [18] was 0.78 and the “CDI (coefficient of drug interaction)” value [19] was 1.04. For the same compound, the “CDI (coefficient of drug interaction)” value [20] was 0.98, the “CDI (coefficient of drug interaction)” value [21] was 0.50 and the “CDI (coefficient of drug interaction)” value [22] was 0.28. For the same compound, the CDI [23] was 0.89, the CDI [24] was 0.73 and the CDI [25] was “Tox”. The CDI [26] was “Tox”, the CDI [27] was 0.48 and the CDI [28] was 0.20. For the same compound, the CDI [29] was “Tox”, the CDI [30] was “Tox” and the CDI [31] was 0.07. The CDI [32] was 0.01, the CDI [33] was “Tox” and the CDI [34] was “Tox”.
